What was measured:
Type in all cases: in vivo, human
[1] = test system: healthy volunteer subjects; test: BNA pattern analysis of EEG data during auditory oddball task, scopolamine vs placebo; conditions: for BNA pattern similarity to placebo group baseline BNA pattern: following scopolamine, oddball task
Excerpt: FIGS. 8A-D show associated subject-specific BNA patterns constructed from EEG data recorded from two healthy volunteer subjects. The black dots in FIGS. 8A-D show the locations of the EEG electrodes, and the color codes in these BNA patterns are the same as defined above. The subject-specific BNA patterns shown in FIGS. 8A-D describe the association of the subjects to a group of healthy subjects following treatment with a placebo drug and while performing an attention task related oddball task.
FIGS. 8A and 8C are subject-specific BNA patterns constructed from EEG data collected from a first subject (FIG. 8A) and a second subject (FIG. 8C) following treatment with a placebo, and FIGS. 8B and 8D are subject-specific BNA patterns constructed from EEG data collected from the first subject (FIG. 8B) and the second subject (FIG. 8D) following treatment with a scopolamine drug. Scopolamine is an anticholinergic drug with inhibitory effect on M2-cholinergic receptors of excited type. It has an inhibitory effect on the cerebral cortex, typically inducing slight-anesthetic effect.
All subjects were administered with Scopolamine 0.4 mg, and Saline serving as a placebo drug, on consecutive days, in a randomized order.
In the auditory oddball target detection test, the subjects were requested to respond to auditory target stimuli that occur infrequently and irregularly within a series of standard stimuli. The standard stimulus was in the form of a 1000 Hz tone, and the target stimulus was in the form of a 2000 Hz tone. The intervals between two successive stimuli (standard or target) were 1.5 seconds. Each subject was exposed to a series of stimuli, of which 80% were standard stimuli and 10% were target stimuli. The additional 10% were background sounds (referred to as “novel stimuli”).
All subjects underwent EEG recordings during the tests. ERPs were recorded using 64 Ag—AgCl active electrodes (ActiveTwo, Biosemi) attached to the scalp by located according to the 10-20 international system, and filled with a conducting gel (Signa, Parker).
Two group BNA patterns (one BNA pattern for the placebo group and one BNA pattern for the scopolamine group), and several subject-specific BNA patterns were constructed according to the teachings of the present embodiments as described in Example 1 above. The similarities between the subject-specific BNA pattern and the group BNA patterns were calculated as described in Example 1 above, except for the following provisions on data selection.
Two types of group BNA patterns were constructed in this example. A first type, referred to herein as a DIFF BNA pattern, described the activity that most differentiated between two groups or two conditions. In this type, data features that appeared in at least 11 subjects out of a maximum number of 15 subjects in one group, but a difference threshold (the number of subjects that had the pattern in one group minus the number of subjects that had the pattern in the other group) of 2 subjects, was used to construct the BNA pattern. […] The SI quantities for this type of BNA patterns were calculated as described in Example 1 above.

[2] = test system: healthy volunteer subjects; test: Clinical observation of behavioral endpoint following treatment with scopolamine
Experimental: A BNA pattern similarity was calculated for each of the subject-specific BNA patterns shown in FIGS. 8A-D. The calculated similarities are 0.937, 0.079, 1.0 and 0.94, respectively. It is recognized by the present inventors that these similarity values indicate that the responsivity to scopolamine is high for the first subject (FIGS. 8A and 8B) and low for the second subject (FIGS. 8C and 8D).

[3] = test system: healthy volunteer subjects; test: BNA pattern analysis of EEG data during working memory test (encoding/retrieval), drug vs placebo; conditions: for effect on central and frontal activation in group BNA pattern / effect on fronto-parietal part / connectivity of group BNA pattern: group BNA patterns (FIGS. 10C-D, 10G-H) vs placebo
ADHD subjects = test: BNA pattern similarity from EEG data of ADHD subjects before and following treatment with MPH
Excerpt: The BNA patterns shown in FIGS. 6A-D are associated subject-specific BNA patterns constructed from EEG data recorded from a particular ADHD subject. The black dots in FIGS. 6A-D show the locations of the EEG electrodes. The color codes in these BNA patterns are the same as defined above. The subject-specific BNA patterns shown in FIGS. 6A-B describe the association of the ADHD subject to a group of untreated ADHD subjects, and the BNA patterns shown in FIGS. 6C-D describe the association of the ADHD subject to a group of ADHD subjects all treated with methylphenidate (MPH). The subject-specific BNA patterns shown in FIGS. 6A and 6C are based on EEG data recorded from the ADHD subject before any treatment, and subject-specific BNA patterns shown in FIGS. 6B and 6D are based on EEG data recorded from the ADHD subject following a treatment with MPH.
The baseline annotated BNA pattern constructed from the group of untreated ADHD subjects, and the baseline annotated BNA pattern constructed from the same group of subjects, but following treatment with MPH are shown in FIGS. 6E and 6F, respectively.
A BNA pattern similarity was calculated for each of the subject-specific BNA patterns shown in FIGS. 6A-D. The calculated similarity corresponding to the BNA pattern of FIG. 6A is 0.73, the calculated similarity corresponding to the BNA pattern of FIG. 6B is 0.19, the calculated similarity corresponding to the BNA pattern of FIG. 6C is 0.56, and the calculated similarity corresponding to the BNA pattern of FIG. 6D is 0.6.
The BNA patterns shown in FIGS. 7A-D were constructed from EEG data recorded from a different ADHD subject, which was also treated with MPH according to the same protocol as described above with respect to the responder subject of FIGS. 6A-D. The black dots in FIGS. 7A-D show the locations of the EEG electrodes, and the color codes in these BNA patterns is the same as defined above. Thus, the subject-specific BNA patterns shown in FIGS. 7A-B describe the association of the ADHD subject to a group of untreated ADHD subjects, and the BNA patterns shown in FIGS. 7C-D describe the association of the ADHD subject to a group of ADHD subjects all treated with methylphenidate (MPH). The subject-specific BNA patterns shown in FIGS. 7A and 7C are based on EEG data recorded from the ADHD subject before any treatment, and subject-specific BNA patterns shown in FIGS. 7B and 7D are based on EEG data recorded from the ADHD subject following a treatment with MPH.
A BNA pattern similarity was calculated for each of the subject-specific BNA patterns shown in FIGS. 7A-D. The calculated similarity corresponding to the BNA pattern of FIG. 7A is 0, the calculated similarity corresponding to the BNA pattern of FIG. 7B is 0, the calculated similarity corresponding to the BNA pattern of FIG. 7C is 0.06, and the calculated similarity corresponding to the BNA pattern of FIG. 7D is 0.

CN1[C@@H]2C[C@@H](OC(=O)[C@H](CO)c3ccccc3)C[C@H]1[C@@H]1O[C@@H]12 [scopolamine]
BNA pattern similarity to placebo group baseline BNA pattern ([1]; first healthy subject (FIG. 8B), after placebo 0.937): 0.079 | responsivity to scopolamine, as indicated by similarity values ([1]; first subject (FIGS. 8A and 8B)): high | number of scopolamine subjects fulfilling the placebo pattern ([1]; oddball test, detection of novel stimuli, Delta frequency pattern (FIGS. 29A-D), 14 in placebo group): 0 subjects | number of subjects in the scopolamine group showing the scopolamine pattern (group-subject value) ([1]; oddball test, detection of target stimuli, Beta (12-18 Hz) pattern (FIGS. 28A-C), Scopolamine 0.4 mg, 15 subjects, 1 placebo subject): 12 subjects | number of scopolamine subjects fulfilling the placebo pattern ([1]; oddball test, detection of target stimuli, Delta frequency pattern (FIGS. 27A-D), Scopolamine 0.4 mg, 15 subjects, 12 in placebo group): 4 subjects | pattern differentiation level ([1]; placebo pattern, detection of novel stimuli (FIGS. 29A-D), placebo vs scopolamine group): 14 | pattern differentiation level ([1]; placebo pattern, detection of target stimuli (FIGS. 27A-D), placebo vs scopolamine group): 8 | pattern differentiation level ([1]; scopolamine pattern, detection of target stimuli (FIGS. 28A-C), scopolamine vs placebo group): 11 | BNA pattern similarity to placebo group baseline BNA pattern ([1]; second healthy subject (FIG. 8D), after placebo 1.0): 0.94 | responsivity to scopolamine, as indicated by similarity values ([1]; second subject (FIGS. 8C and 8D)): low | decrease in behavioral endpoint ([2]; first subject): 70% | change in behavioral endpoint ([2]; second subject): no change | pattern differentiation level ([3]; encoding placebo DIFF BNA pattern, placebo vs scopolamine group): 11 | pattern differentiation level ([3]; encoding scopolamine DIFF BNA pattern, scopolamine vs placebo group): 10 | pattern differentiation level ([3]; retrieval placebo DIFF BNA pattern, placebo vs scopolamine group): 13 | pattern differentiation level ([3]; retrieval scopolamine DIFF BNA pattern, scopolamine vs placebo group): 14 | number of scopolamine subjects fulfilling the encoding placebo DIFF BNA pattern ([3]; working memory test, encoding process (FIGS. 10A, 32-34), 13 in placebo group): Two | number of subjects in the scopolamine group showing the encoding scopolamine DIFF BNA pattern (group-subject value) ([3]; working memory test, encoding process (FIGS. 10C, 35A-B), three placebo subjects): 13 subjects | effect on central and frontal activation in group BNA pattern ([3]; working memory test): extensive compensatory central and frontal activation | effect on fronto-parietal part / connectivity of group BNA pattern ([3]; working memory test): low connectivity between frontal and parietal regions | number of scopolamine subjects fulfilling the retrieval placebo DIFF BNA pattern ([3]; working memory test, retrieval process (FIGS. 10B, 30A-C), 14 in placebo group): One | number of subjects in the scopolamine group showing the retrieval scopolamine DIFF BNA pattern (group-subject value) ([3]; working memory test, retrieval process (FIGS. 10D, 31A-E), one placebo subject): 15 subjects

CNC1(c2ccccc2Cl)CCCCC1=O (stereo not shown) [ketamine]
effect on central and frontal activation in group BNA pattern ([3]; working memory test): increased central and frontal activation | effect on fronto-parietal part / connectivity of group BNA pattern ([3]; working memory test): No significant change | effect on right lateralization in group BNA pattern ([3]; working memory test, group BNA patterns (FIGS. 10G-H) vs placebo): decreased right lateralization

COC(=O)C(c1ccccc1)C1CCCCN1 (stereo not shown) [MPH, methylphenidate]
responsiveness of the subject to the treatment, as indicated by similarity values (ADHD subjects; ADHD subject of FIGS. 6A-D): responsive to the treatment | BNA pattern similarity to the baseline BNA pattern for the untreated ADHD group (ADHD subjects; ADHD subject of FIGS. 6A-D (FIG. 6B), following a single dose treatment with MPH, before treatment 0.73): 0.19 | BNA pattern similarity to the baseline BNA pattern for the treated ADHD group (ADHD subjects; ADHD subject of FIGS. 6A-D (FIG. 6D), following a single dose treatment with MPH, before treatment 0.56): 0.6 | responsiveness of the subject to the treatment, as indicated by similarity values (ADHD subjects; ADHD subject of FIGS. 7A-D): not responsive to the treatment | BNA pattern similarity to the group of untreated ADHD subjects (ADHD subjects; different ADHD subject of FIGS. 7A-D (FIG. 7B), following treatment with MPH, before treatment 0): 0 | BNA pattern similarity to the group of ADHD subjects treated with MPH (ADHD subjects; different ADHD subject of FIGS. 7A-D (FIG. 7D), following treatment with MPH, before treatment 0.06): 0

Source: patent US9895077B2, “Method for diagnosing a brain related disorder using brain network activity patterns” (Elminda Ltd., priority 2010, dated 2018)
